One experiment has as its system HEK293 cells. The experiment can be described thus: Cellular growth inhibition assay (CellTiter-Glo), HEK293 cells. Type of experiment: cell-based. The following applies: Homo sapiens, 72 h, three days compound treatment, CellTiter-Glo 2.0, read-out: CTG HEK293 GI50. The method in brief:
(§1)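 GI50 derived by four-parameter regression of luminescence (CellTiter-Glo 2.0) at Day 0 and Day 3, normalized to DMSO wells. Cells (HeLa, HEK293; 500/well, DMEM plus 10% FBS) were dosed with compound dilutions 24 h post-seeding and exposed for three days at 37 °C.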

The test system of the next experiment is HeLa cells. Kind of experiment: Cellular growth inhibition assay (CellTiter-Glo), HeLa cells. The following applies: Homo sapiens, 72 h, three days compound treatment, CellTiter-Glo 2.0, read-out: CTG HELA GI50. Type of experiment: cell-based. The gist of the method:
as §1
A general note: ATP-based viability assays read luminescence as a measure of living cells.

In another experiment the target is T1, KRAS G12C (Homo sapiens, UniProt P01116, G12C).
T1 construct: Kras (aa 2-169), GST; purchased Reaction Biology Corporation (RBC)
The experiment can be described thus: KRAS G12C nucleotide exchange assay (SOS1 mediated, HTRF). Type of experiment: biochemical. The following applies: 1 hr pre-incubation at RT, read-out: IC50 (inhibition of KRas G12C). The method, then: Exemplary compounds were tested for ability to inhibit KRas G12C.
KRAS target engagement (IC50 determination) was performed using a KRAS G12C nucleotide exchange assay (Reaction Biology Corporation). Specifically, compounds were tested against KRAS G12C in 10-point concentration IC50 mode with 3-fold serial dilution at a starting concentration of 10 μM. ARS1620 was used as a control. Compounds were pre-incubated with protein for 1 hr at RT. Parameters for the assay were:
In the method, Kras was mixed with a-GST Tb antibody (1.5× solution) and […] was delivered to reaction wells. Compounds were delivered using acoustic dispenser (Echo, Labcyte). Kras/aGST-Tb Ab/compound mixture was incubated for 1 hour at room temperature. A 3× solution of SOS1 and GTP* was prepared in reaction buffer. A […] aliquot of SOS1/GTP* solution was added to reaction well to initiate the exchange reaction. No—SOS1 reaction or max compound concentration was used as blank. IC50 determination was performed using a Sigmoidal dose response (variable slope) equation.

T1 sequence (P01116 2-169 isoform P01116-2 G12C): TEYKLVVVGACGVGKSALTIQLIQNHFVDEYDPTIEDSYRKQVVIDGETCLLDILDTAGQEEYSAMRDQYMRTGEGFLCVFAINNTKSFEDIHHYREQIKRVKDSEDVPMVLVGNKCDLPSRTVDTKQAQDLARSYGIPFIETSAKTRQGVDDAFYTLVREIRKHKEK

The GI50 is the concentration that inhibits growth by half. What is called IC50 is the concentration at which inhibition is half-maximal. For `C=C(F)C(=O)N1CCN(c2nc(OC[C@@H]3CCCN3CCCOCCOCCn3cc(CNc4cc(N5CCCC[C@H]5CCO)nc5c(CC)cnn45)ccc3=O)nc3c2CCN(c2cccc4cccc(Cl)c24)C3)C[C@@H]1CC#N` [Compound I-87, 2-[(2S)-4-[7-(8-chloro-1-naphthyl)-2-[[(2S)-1-[3-[2-[2-[5-[[[3-ethyl-5-[(2S)-2-(2-hydroxyethyl)-1-piperidyl]pyrazolo[1,5-a]pyrimidin-7-yl]amino]methyl]-2-oxo-1-pyridyl]ethoxy]ethoxy]propyl]pyrrolidin-2-yl]methoxy]-6,8-dihydro-5H-pyrido[3,4-d]pyrimidin-4-yl]-1-(2-fluoroprop-2-enoyl)piperazin-2-yl]acetonitrile], the 50% growth inhibitory concentration (GI50) in the experiment on HEK293 cells and in the experiment with HeLa cells was 500 to 1500 nM each time. Further, the half-maximal inhibitory concentration (IC50) on KRAS G12C was less than 100 nM.

For the compound `C=C(F)C(=O)N1CCN(c2nc(OC[C@@H]3CCCN3CCCOCCOCCOc3ccc(CNc4cc(N5CCCC[C@H]5CCO)nc5c(CC)cnn45)cn3)nc3c2CCN(c2cccc4cccc(Cl)c24)C3)C[C@@H]1CC#N` [Compound I-88, 2-[(2S)-4-[7-(8-chloro-1-naphthyl)-2-[[(2S)-1-[3-[2-[2-S[[5-[[[3-ethyl-5-[(2S)-2-(2-hydroxyethyl)-1-piperidyl]pyrazolo[1,5-a]pyrimidin-7-yl]amino]methyl]-2-pyridyl]oxy]ethoxy]ethoxy]propyl]pyrrolidin-2-yl]methoxy]-6,8-dihydro-5H-pyrido[3,4-d]pyrimidin-4-yl]-1-(2-fluoroprop-2-enoyl)piperazin-2-yl]acetonitrile], the concentration for 50% growth inhibition (GI50) in the experiment on HEK293 cells and with HeLa cells was 500 to 1500 nM throughout. For the same compound, the IC50 at KRAS G12C was less than 100 nM.

With `CCc1cnn2c(NCc3ccc(OCCOCCOCCN(C)C/C=C/C(=O)N4CCN(c5nc(OC[C@@H]6CCCN6C)nc6c5CCN(c5cccc7cccc(Cl)c57)C6)C[C@@H]4CC#N)nc3)cc(N3CCCC[C@H]3CCO)nc12` [Compound I-89], the 50% growth inhibitory concentration (GI50) with HEK293 cells is 500 to 1500 nM; with HeLa cells it was less than 500 nM. The IC50 at KRAS G12C was less than 100 nM.

For `CCc1cnn2c(NCc3ccc(OCCN(C)C/C=C/C(=O)N4CCN(c5nc(OC[C@@H]6CCCN6C)nc6c5CCN(c5cccc7cccc(Cl)c57)C6)C[C@@H]4CC#N)nc3)cc(N3CCCC[C@H]3CCO)nc12` [Compound I-91, 2-[(2S)-4-[7-(8-chloro-1-naphthyl)-2-[[(2S)-1-methylpyrrolidin-2-yl]methoxy]-6,8-dihydro-5H-pyrido[3,4-d]pyrimidin-4-yl]-1-[(E)-4-[2-[[5-[[[3-ethyl-5-[(2S)-2-(2-hydroxyethyl)-1-piperidyl]pyrazolo [1,5-a]pyrimidin-7-yl]amino]methyl]-2-pyridyl]oxy]ethyl-methyl-amino]but-2-enoyl]piperazin-2-yl]acetonitrile], the GI50 in the experiment with HEK293 cells and in the experiment on HeLa cells was less than 500 nM in each case. In addition, the IC50 on KRAS G12C is less than 100 nM.

Take `CCc1cnn2c(NCc3ccc(OCCOCCOCCOCCOCCOCCOCCOCCOCCN(C)C/C=C/C(=O)N4CCN(c5nc(OC[C@@H]6CCCN6C)nc6c5CCN(c5cccc7cccc(Cl)c57)C6)C[C@@H]4CC#N)nc3)cc(N3CCCC[C@H]3CCO)nc12` [Compound I-93, 2-((S)-4-(7-(8-chloronaphthalen-1-yl)-2-(((S)-1-methylpyrrolidin-2-yl)methoxy)-5,6,7,8-tetrahydropyrido[3,4d]pyrimidin4-yl)-1-((E)-1-((5-(((3-ethyl-5-((S)-2-(2-hydroxyethyl)piperidin-1-yl)pyrazolo[1,5-a]pyrimidin-7-yl)amino)methyl)pyridin-2-yl)oxy)-27-methyl-3,6,9,12,15,18,21,24-octaoxa-27-azahentriacont-29-en-31-oyl)piperazin-2-yl)acetonitrile]: the values for the GI50 with HEK293 cells and in the experiment on HeLa cells were 1500 to 5000 nM and less than 500 nM, respectively. Besides, the half-maximal inhibitory concentration (IC50) on KRAS G12C was less than 100 nM.

On to `CCc1cnn2c(NCc3ccc(OCCOCCOCCOCCOCCOCCOCCN(C)C/C=C/C(=O)N4CCN(c5nc(OC[C@@H]6CCCN6C)nc6c5CCN(c5cccc7cccc(Cl)c57)C6)C[C@@H]4CC#N)nc3)cc(N3CCCC[C@H]3CCO)nc12` [Compound I-94, 2-((S)-4-(7-(8-chloronaphthalen-1-yl)-2-(((S)-1-methylpyrrolidin-2-yl)methoxy) -5,6,7,8-tetrahydropyrido[3,4-d]pyrimidin-4-yl)-1-((E)-1-((5-(((3-ethyl-5-((S)-2-(2-hydroxyethyl)piperidin-1-yl)pyrazolo[1,5-a]pyrimidin-7-yl)amino)methyl)pyridin-2-yl)oxy)-21-methyl-3,6,9,12,15,18-hexaoxa-21-azapentacos-23-en-25-oyl)piperazin-2-yl)acetonitrile], for which the GI50 with HEK293 cells lay within 1500 to 5000 nM; with HeLa cells, 500 to 1500 nM. Further, the IC50 at KRAS G12C was less than 100 nM.

In the case of `CCc1cnn2c(NCc3ccc(OCCOCCOCCOCCOCCOCCOCCOC/C=C/C(=O)N4CCN(c5nc(OC[C@@H]6CCCN6C)nc6c5CCN(c5cccc7cccc(Cl)c57)C6)C[C@@H]4CC#N)nc3)cc(N3CCCC[C@H]3CCO)nc12` [Compound I-95], the GI50 in the experiment on HEK293 cells is 1500 to 5000 nM; with HeLa cells, more than 5000 nM. Besides, the IC50 at KRAS G12C lay within 1000 to 5000 nM.

For `C=C(F)C(=O)N1CCN(c2nc(OC[C@@H]3CCCN3CCCOCCOCCOCCOCCN(C)C(=O)N3N=C(c4cc(F)ccc4F)S[C@@]3(CCCN)c3ccccc3)nc3c2CCN(c2cccc4cccc(Cl)c24)C3)C[C@@H]1CC#N` [Compound I-98, 2-(3-aminopropyl)-N-[2-[2-[2-[2-[3-[(2S)-2-[[7-(8-chloro-1-naphthyl)-4-[(3S)-3-(cyanomethyl)-4-(2-fluoroprop-2-enoyl)piperazin-1-yl]-6,8-dihydro-5H-pyrido[3,4-d]pyrimidin-2-yl]oxymethyl]pyrrolidin-1-yl]propoxy]ethoxy]ethoxy]ethoxy]ethyl]-5-(2,5-difluorophenyl)-N-methyl-2-phenyl-1,3,4-thiadiazole-3-carboxamide], the GI50 fell in the range of 1500 to 5000 nM in the experiment with HEK293 cells and 500 to 1500 nM with HeLa cells. For the same compound, the IC50 on KRAS G12C is less than 100 nM.

On to `C=C(F)C(=O)N1CCN(c2nc(OC[C@@H]3CCCN3CCCOCCOCCN(C)C(=O)N3N=C(c4cc(F)ccc4F)SC3(CCCN)c3ccccc3)nc3c2CCN(c2cccc4cccc(Cl)c24)C3)C[C@@H]1CC#N` (stereo partly drawn) [Compound I-99, 2-(3-aminopropyl)-N-[2-[2-[3-[(2S)-2-[[7-(8-chloro-1-naphthyl)-4-[(3S)-3-(cyanomethyl)-4-(2-fluoroprop-2-enoyl)piperazin-1-yl]-6,8-dihydro-5H-pyrido[3,4-d]pyrimidin-2-yl]oxymethyl]pyrrolidin-1-yl]propoxy]ethoxy]ethyl]-5-(2,5-difluorophenyl)-N-methyl-2-phenyl-1,3,4-thiadiazole-3-carboxamide], for which the GI50 with HEK293 cells lay in the range of 1500 to 5000 nM; in the experiment with HeLa cells, 500 to 1500 nM. Further, the half-maximal inhibitory concentration (IC50) at KRAS G12C is less than 100 nM.

With `C=C(F)C(=O)N1CCN(c2nc(OC[C@@H]3CCCN3CCCOCCOCCOCCOCCOCCOCCN(C)C(=O)N3N=C(c4cc(F)ccc4F)S[C@@]3(CCCN)c3ccccc3)nc3c2CCN(c2cccc4cccc(Cl)c24)C3)C[C@@H]1CC#N` [Compound I-100, (2S)-2-(3-aminopropyl)-N-[2-[22[2-[2-[2-[2-[3-[(2S)-2-[[7-(8-chloro-1-naphthyl)-4-[(3S)-3-(cyanomethyl)-4-(2-fluoroprop-2-enoyl)piperazin-1-yl]-6,8-dihydro-5H-pyrido[3,4-d]pyrimidin-2-yl]oxymethyl]pyrrolidin-1-yl]propoxy]ethoxy]ethoxy]ethoxy]ethoxy]ethoxy]ethyl]-5-(2,5-difluorophenyl)-N-methyl-2-phenyl-1,3,4-thiadiazole-3-carboxamide], the GI50 in the experiment with HEK293 cells was more than 5000 nM; with HeLa cells it was 1500 to 5000 nM. At KRAS G12C, the IC50 was less than 100 nM.

(Values after patent US20250032623A1, “HETEROBIFUNCTIONAL COMPOUNDS AND THEIR USE IN TREATING DISEASE” (HALDA THERAPEUTICS OPCO, INC., priority 2021, published 2025).)
